Laboratory results as given in the supplement of paper PMC11150407.

Tests used:
Experiment in all cases: area under dose-response viability curve (log dose) (AUC (arbitrary)); higher = less sensitive
Conditions in all cases: 72 h
AR-42 = compound: CC(C)[C@H](C(=O)Nc1ccc(C(=O)NO)cc1)c1ccccc1 [AR-42]
Protocol: (§1)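 Primary AML blasts from patients (3q26 EVI1-high and other AML) were treated for 72 h with a dose series of each drug. Viability was measured with an ATP-based CellTiter-Glo assay. The area under the curve of the log-transformed dose-response data was computed in GraphPad Prism; a lower AUC means greater sensitivity.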

Vincristine = compound: CC[C@]1(O)C[C@H]2CN(CCc3c([nH]c4ccccc34)[C@@](C(=O)OC)(c3cc4c(cc3OC)N(C=O)[C@H]3[C@@](O)(C(=O)OC)[C@H](OC(C)=O)[C@]5(CC)C=CCN6CC[C@]43[C@@H]65)C2)C1 [Vincristine]
Protocol: as §1

Methotrexate = compound: CN(Cc1cnc2nc(N)nc(N)c2n1)c1ccc(C(=O)N[C@@H](CCC(=O)O)C(=O)O)cc1 [Methotrexate]
Protocol: as §1

Daunorubicine = compound: COc1cccc2c1C(=O)c1c(O)c3c(c(O)c1C2=O)C[C@@](O)(C(C)=O)C[C@@H]3O[C@H]1C[C@H](N)[C@H](O)[C@H](C)O1 [Daunorubicine]
Protocol: as §1

Entinostat = compound: Nc1ccccc1NC(=O)c1ccc(CNC(=O)OCc2cccnc2)cc1 [Entinostat]
Protocol: as §1

Belinostat = compound: O=C(/C=C/c1cccc(S(=O)(=O)Nc2ccccc2)c1)NO [Belinostat]
Protocol: as §1

PR#027 (EVI1 status: EVI1Low)
area under dose-response viability curve (AR-42): 158
area under dose-response viability curve (Vincristine): 186
area under dose-response viability curve (Methotrexate): 262
area under dose-response viability curve (Daunorubicine): 63.1
area under dose-response viability curve (Entinostat): 197
area under dose-response viability curve (Belinostat): 164

PR#003 (EVI1 status: EVI1High)
area under dose-response viability curve (AR-42): 112
area under dose-response viability curve (Vincristine): 162
area under dose-response viability curve (Methotrexate): 239
area under dose-response viability curve (Daunorubicine): 68
area under dose-response viability curve (Entinostat): 142
area under dose-response viability curve (Belinostat): 156

PR#029 (EVI1 status: EVI1Low)
area under dose-response viability curve (AR-42): 167
area under dose-response viability curve (Vincristine): 46.3
area under dose-response viability curve (Methotrexate): 229
area under dose-response viability curve (Daunorubicine): 25.4
area under dose-response viability curve (Entinostat): 213
area under dose-response viability curve (Belinostat): 221

PR#013 (EVI1 status: EVI1Low)
area under dose-response viability curve (AR-42): 130
area under dose-response viability curve (Vincristine): 193
area under dose-response viability curve (Methotrexate): 233
area under dose-response viability curve (Daunorubicine): 68.1
area under dose-response viability curve (Entinostat): 153
area under dose-response viability curve (Belinostat): 169

PR#025 (EVI1 status: EVI1Low)
area under dose-response viability curve (AR-42): 178
area under dose-response viability curve (Vincristine): 214
area under dose-response viability curve (Methotrexate): 247
area under dose-response viability curve (Daunorubicine): 77.4
area under dose-response viability curve (Entinostat): 256
area under dose-response viability curve (Belinostat): 197

PR#038 (EVI1 status: EVI1Low)
area under dose-response viability curve (AR-42): 141
area under dose-response viability curve (Vincristine): 187
area under dose-response viability curve (Methotrexate): 209
area under dose-response viability curve (Daunorubicine): 86
area under dose-response viability curve (Entinostat): 143
area under dose-response viability curve (Belinostat): 167

PR#010 (EVI1 status: EVI1Low)
area under dose-response viability curve (AR-42): 121
area under dose-response viability curve (Vincristine): 172
area under dose-response viability curve (Methotrexate): 256
area under dose-response viability curve (Daunorubicine): 93.9
area under dose-response viability curve (Entinostat): 147
area under dose-response viability curve (Belinostat): 177

PR#024 (EVI1 status: EVI1High)
area under dose-response viability curve (AR-42): 106
area under dose-response viability curve (Vincristine): 97
area under dose-response viability curve (Methotrexate): 249
area under dose-response viability curve (Daunorubicine): 66.1
area under dose-response viability curve (Entinostat): 167
area under dose-response viability curve (Belinostat): 122

PR#019 (EVI1 status: EVI1Low)
area under dose-response viability curve (AR-42): 208
area under dose-response viability curve (Vincristine): 203
area under dose-response viability curve (Methotrexate): 245
area under dose-response viability curve (Daunorubicine): 128
area under dose-response viability curve (Entinostat): 232
area under dose-response viability curve (Belinostat): 225

PR#030 (EVI1 status: EVI1Low)
area under dose-response viability curve (AR-42): 158
area under dose-response viability curve (Vincristine): 147
area under dose-response viability curve (Methotrexate): 233
area under dose-response viability curve (Daunorubicine): 88.5
area under dose-response viability curve (Entinostat): 237
area under dose-response viability curve (Belinostat): 180

PR#031 (EVI1 status: EVI1Low)
area under dose-response viability curve (AR-42): 189
area under dose-response viability curve (Vincristine): 129
area under dose-response viability curve (Methotrexate): 233
area under dose-response viability curve (Daunorubicine): 34.9
area under dose-response viability curve (Entinostat): 229
area under dose-response viability curve (Belinostat): 204

PR#034 (EVI1 status: EVI1Low)
area under dose-response viability curve (AR-42): 142
area under dose-response viability curve (Vincristine): 202
area under dose-response viability curve (Methotrexate): 233
area under dose-response viability curve (Daunorubicine): 192
area under dose-response viability curve (Entinostat): 195
area under dose-response viability curve (Belinostat): 160

PR#016 (EVI1 status: EVI1Low)
area under dose-response viability curve (AR-42): 148
area under dose-response viability curve (Vincristine): 152
area under dose-response viability curve (Methotrexate): 270
area under dose-response viability curve (Daunorubicine): 104
area under dose-response viability curve (Entinostat): 159
area under dose-response viability curve (Belinostat): 156

PR#036 (EVI1 status: EVI1Low)
area under dose-response viability curve (AR-42): 130
area under dose-response viability curve (Vincristine): 123
area under dose-response viability curve (Methotrexate): 251
area under dose-response viability curve (Daunorubicine): 48.2
area under dose-response viability curve (Entinostat): 172
area under dose-response viability curve (Belinostat): 150

PR#005 (EVI1 status: EVI1High)
area under dose-response viability curve (AR-42): 156
area under dose-response viability curve (Vincristine): 156
area under dose-response viability curve (Methotrexate): 198
area under dose-response viability curve (Daunorubicine): 87.5
area under dose-response viability curve (Entinostat): 107
area under dose-response viability curve (Belinostat): 138

PR#023 (EVI1 status: EVI1High)
area under dose-response viability curve (AR-42): 139
area under dose-response viability curve (Vincristine): 140
area under dose-response viability curve (Methotrexate): 240
area under dose-response viability curve (Daunorubicine): 138
area under dose-response viability curve (Entinostat): 162
area under dose-response viability curve (Belinostat): 165

PR#039 (EVI1 status: EVI1Low)
area under dose-response viability curve (AR-42): 96
area under dose-response viability curve (Vincristine): 95.7
area under dose-response viability curve (Methotrexate): 201
area under dose-response viability curve (Daunorubicine): 24.5
area under dose-response viability curve (Entinostat): 125
area under dose-response viability curve (Belinostat): 124

PR#022 (EVI1 status: EVI1Low)
area under dose-response viability curve (AR-42): 140
area under dose-response viability curve (Vincristine): 175
area under dose-response viability curve (Methotrexate): 244
area under dose-response viability curve (Daunorubicine): 59.5
area under dose-response viability curve (Entinostat): 185
area under dose-response viability curve (Belinostat): 161

PR#035 (EVI1 status: EVI1Low)
area under dose-response viability curve (AR-42): 145
area under dose-response viability curve (Vincristine): 119
area under dose-response viability curve (Methotrexate): 198
area under dose-response viability curve (Daunorubicine): 64.4
area under dose-response viability curve (Entinostat): 175
area under dose-response viability curve (Belinostat): 168

PR#028 (EVI1 status: EVI1Low)
area under dose-response viability curve (AR-42): 164
area under dose-response viability curve (Vincristine): 116
area under dose-response viability curve (Methotrexate): 252
area under dose-response viability curve (Daunorubicine): 142
area under dose-response viability curve (Entinostat): 198
area under dose-response viability curve (Belinostat): 182
